Test results from patent publication US10206397B2, “N-acylimino heterocyclic compounds” (BASF SE, priority 2013, dated 2019).

What was measured:
Format in all cases: in vivo
[1] = test system: Orchid Thrips (dichromothrips corbetti); assay: Orchid thrips floral-immersion test; settings: 72 h, read-out: mortality in comparison with untreated controls
Description: B.6 Orchid Thrips (dichromothrips corbetti)
Dichromothrips corbetti adults used for bioassay are obtained from a colony maintained continuously under laboratory conditions. For testing purposes, the test compound is diluted in a 1:1 mixture of acetone:water (vol:vol), plus 0.01% vol/vol Alkamuls® EL 620 surfactant.
Thrips potency of each compound is evaluated by using a floral-immersion technique. Plastic petri dishes are used as test arenas. All petals of individual, intact orchid flowers are dipped into treatment solution and allowed to dry. Treated flowers are placed into individual petri dishes along with about 20 adult thrips. The petri dishes are then covered with lids. All test arenas are held under continuous light and a temperature of about 28° C. for duration of the assay. After 3 days, the numbers of live thrips are counted on each flower, and along inner walls of each petri dish. The percent mortality is recorded 72 hours after treatment.

[2] = test system: Silverleaf Whitefly (bemisia argentifolii); assay: Silverleaf whitefly spray test on cotton plants; settings: 72 h, read-out: mortality in comparison with untreated controls
Text: B.5 Silverleaf Whitefly (bemisia argentifolii)
The active compounds are formulated in cyclohexanone as a 10,000 ppm solution supplied in tubes. The tubes are inserted into an automated electrostatic sprayer equipped with an atomizing nozzle and they serve as stock solutions for which lower dilutions are made in 50% acetone:50% water (v/v). A nonionic surfactant (Kinetic®) is included in the solution at a volume of 0.01% (v/v).
Cotton plants at the cotyledon stage (one plant per pot) are sprayed by an automated electrostatic plant sprayer equipped with an atomizing spray nozzle. The plants are dried in the sprayer fume hood and then removed from the sprayer. Each pot is placed into a plastic cup and about 10 to 12 whitefly adults (approximately 3-5 days old) are introduced. The insects are collected using an aspirator and a nontoxic Tygon® tubing connected to a barrier pipette tip. The tip, containing the collected insects, is then gently inserted into the soil containing the treated plant, allowing insects to crawl out of the tip to reach the foliage for feeding. Cups are covered with a reusable screened lid. […] Mortality is assessed 3 days after treatment, compared to untreated control plants.

[3] = test system: vetch aphid (Megoura viciae); assay: Vetch aphid contact/systemic test on broad bean leaf disks; settings: foliar, 120 h, read-out: mortality in comparison with untreated controls
Description: B.2 Vetch Aphid (Megoura viciae)
For evaluating control of vetch aphid (Megoura viciae) through contact or systemic means the test unit consisted of 24-well-microtiter plates containing broad bean leaf disks.
The compounds were formulated using a solution containing 75% v/v water and 25% v/v DMSO. Different concentrations of formulated compounds were sprayed onto the leaf disks at 2.5 μl, using a custom built micro atomizer, at two replications.
After application, the leaf disks were air-dried and 5-8 adult aphids were placed on the leaf disks inside the microtiter plate wells. The aphids were then allowed to suck on the treated leaf disks and were incubated at about 23±1° C. and about 50±5% relative humidity for 5 days. Aphid mortality and fecundity was then visually assessed.

[4] = test system: Rice Green Leafhopper (Nephotettix virescens); assay: Rice green leafhopper spray test on rice seedlings; settings: 72 h, read-out: mortality in comparison with untreated controls
Description: B.7 Rice Green Leafhopper (Nephotettix virescens)
(§1) Rice seedlings are cleaned and washed 24 hours before spraying. The active compounds are formulated in 50:50 acetone:water (vol:vol), and 0.1% vol/vol surfactant (EL 620) is added. Potted rice seedlings are sprayed with 5 ml test solution, air dried, placed in cages and inoculated with 10 adults. Treated rice plants are kept at about 28-29° C. and relative humidity of about 50-60%. Percent mortality is recorded after 72 hours.

[5] = test system: Green Soldier Stink Bug (Nezara viridula); assay: Green soldier stink bug spray test on soybean pods; settings: 120 h, sprayed soybean pods, 3rd instar, 5 days, read-out: mortality in comparison with untreated controls
Description: B.10 Green Soldier Stink Bug (Nezara viridula)
The active compound is dissolved at the desired concentration in a mixture of 1:1 (vol:vol) distilled water:aceteone. Surfactant (Kinetic HV) is added at a rate of 0.01% (vol/vol). The test solution is prepared at the day of use.
Soybean pods were placed in microwavable plastic cups lined with moist filter paper and inoculated with ten 3rd instar N. viridula. Using a hand atomizer, approximately 2 ml solution is sprayed into each cup. Treated cups were kept at about 28-29° C. and relative humidity of about 50-60%. Percent mortality was recorded after 5 days.

[6] = test system: Cotton aphid (Aphis gossypii); assay: Cotton aphid spray test on potted plants; settings: 72 h, read-out: mortality in comparison with untreated controls
Description: B.3 Cotton aphid (Aphis gossypii)
(§2) The active compound is dissolved at the desired concentration in a mixture of 1:1 (vol:vol) distilled water:acetone. Surfactant (Alkamuls® EL 620) is added at a rate of 0.1% (vol/vol). The test solution is prepared at the day of use.
(§3) Potted cowpea plants were colonized with approximately 50-100 aphids of various stages by manually transferring a leaf tissue cut from infested plant 24 hours before application. Plants were sprayed after the pest population has been recorded. Treated plants are maintained on light carts at about 28° C. Percent mortality was assessed after 72 hours.

[7] = test system: green peach aphid (Myzus persicae); assay: Green peach aphid systemic test, artificial diet in 96-well microtiter plates; settings: 72 h, read-out: mortality in comparison with untreated controls
Text: B.1 Green Peach Aphid (Myzus persicae)
For evaluating control of green peach aphid (Myzus persicae) through systemic means, the test unit consists of 96-well-microtiter plates containing liquid artificial diet under an artificial membrane.
The compounds are formulated using a solution containing 75% v/v water and 25% v/v DMSO. Different concentrations of formulated compounds are pipetted into the aphid diet, using a custom built pipetter, at two replications.
After application, 5-8 adult aphids are placed on the artificial membrane inside the microtiter plate wells. The aphids are then allowed to suck on the treated aphid diet and incubated at about 23+1° C. and about 50+5% relative humidity for 3 days. Aphid mortality and fecundity is then visually assessed.

[8] = test system: Rice Brown Plant Hopper (Nilaparvata lugens); assay: Rice brown plant hopper spray test on rice seedlings; settings: 72 h, read-out: mortality in comparison with untreated controls
Description: B.8 Rice Brown Plant Hopper (Nilaparvata lugens)
as §1, with “compounds is” for “compounds are”, “acetone:water (vol:vol)” for “acetone:water (vol:vol),”, “620) was” for “620) is”

[9] = test system: Cowpea Aphid (Aphis craccivora); assay: Cowpea aphid spray test on potted cowpea plants; settings: 72 h, read-out: mortality in comparison with untreated controls
Description: B.4 Cowpea Aphid (Aphis craccivora)
as §2
as §3, with “are” for “were”, “is” for “was”

[10] = test system: Diamond Back Moth (Plutella xylostella); assay: Diamond back moth cabbage leaf dip test; settings: foliar, 72 h, read-out: mortality in comparison with untreated controls
Description: B.9 Diamond Back Moth (Plutella xylostella)
The active compound is dissolved at the desired concentration in a mixture of 1:1 (vol:vol) distilled water:aceteone. Surfactant (Alkamuls® EL 620) is added at a rate of 0.1% (vol/vol). The test solution is prepared at the day of use.
Leaves of cabbage were dipped in test solution and air-dried. Treated leaves were placed in petri dish eslined with moist filter paper and inoculated with ten 3rd instar larvae. Mortality was recorded 72 hours after treatment. Feeding damages were also recorded using a scale of 0-100%.

With N#CCC(=O)/N=c1\ccccn1Cc1ccc(Cl)nc1 [I.A-1] the mortality at 500 ppm [1] was no less than 75%, the mortality at 500 ppm [2] was no less than 75% and the mortality at 2500 ppm [3] was no less than 75%. The mortality at 500 ppm [4] was no less than 75%, the mortality at 500 ppm [5] was greater than 75% and the mortality at 500 ppm [6] was greater than 75%. It also gave a mortality at 2500 ppm [7] of no less than 75%, a mortality at 500 ppm [8] of no less than 75% and a mortality at 500 ppm [9] of no less than 75%.
N#CC1(C(=O)/N=c2\ccccn2Cc2ccc(Cl)nc2)CC1 [I.B-1] gave a mortality at 500 ppm [1] of no less than 75%, a mortality at 2500 ppm [3] of no less than 75% and a mortality at 500 ppm [4] of no less than 75%. For the same compound, the mortality at 2500 ppm [7] was no less than 75%, the mortality at 500 ppm [10] was greater than 75% and the mortality at 500 ppm [8] was no less than 75%. The mortality at 500 ppm [9] was no less than 75%.
